Laboratory results taken from the supplement of paper PMC10307832.

What was measured:
Test in all cases: relative viability (nuclei count vs DMSO), 5 days (fraction); higher = more cells survive
[1] = system: NCI-H2126
How it was run: (§1)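 A single step with final 0.05% Triton X-100, 1% formaldehyde and 1 ug/ml Hoechst fixed the cells and stained nuclei 5 days after treatment. Lung cancer cell lines in 1536-well plates had been treated by pin tool the day after seeding with one drug alone or a fixed anchor-drug dose plus five library-drug doses (not always all listed) in √10 steps, and nuclei were counted on 4× images. Relative viability is the ratio of nuclei in treated wells to nuclei in vehicle wells, taken as the median of duplicate plates.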

[2] = system: NCI-H322M
How it was run: as §1

[3] = system: HOP-62
How it was run: as §1

[4] = system: NCI-H1650
How it was run: as §1

[5] = system: NCI-H2085
How it was run: as §1

[6] = system: NCI-H358
How it was run: as §1

[7] = system: NCI-H2023
How it was run: as §1

[8] = system: NCI-H2342
How it was run: as §1

[9] = system: SK-LU-1
How it was run: as §1

[10] = system: EMC-BAC-2
How it was run: as §1

[11] = system: NCI-H661
How it was run: as §1

[12] = system: NCI-H1993
How it was run: as §1

[13] = system: NCI-H1915
How it was run: as §1

[14] = system: PC-14
How it was run: as §1

[15] = system: BEN
How it was run: as §1

[16] = system: NCI-H647
How it was run: as §1

[17] = system: NCI-H2347
How it was run: as §1

[18] = system: LCLC-97TM1
How it was run: as §1

[19] = system: NCI-H2009
How it was run: as §1

[20] = system: SW 1573
How it was run: as §1

[21] = system: LXF-289
How it was run: as §1

[22] = system: NCI-H727
How it was run: as §1

[23] = system: H3255
How it was run: as §1

For `C[C@@H]1CN(CC(=O)Nc2ccc3c(c2)Cc2cccc(-c4cc(=O)cc(N5CCOCC5)o4)c2S3)C[C@H](C)O1` + Cc1cc(Nc2cc(N3CCN(C)CC3)nc(Sc3ccc(NC(=O)C4CC4)cc3)n2)n[nH]1 [Tozasertib] (partner 0.1 µM), the relative viability ([1]; first compound 0.04 µM) was 0.898, the relative viability ([1]; first compound 0.1265 µM) was 0.83 and the relative viability ([1]; first compound 0.4 µM) was 0.793. For the same compound, the relative viability ([1]; first compound 4 µM) was 0.699, the relative viability ([2]; first compound 0.04 µM) was 0.489 and the relative viability ([2]; first compound 0.1265 µM) was 0.486. For the same compound, the relative viability ([2]; first compound 0.4 µM) was 0.449, the relative viability ([2]; first compound 4 µM) was 0.432 and the relative viability ([3]; first compound 0.04 µM) was 0.378. For the same compound, the relative viability ([3]; first compound 0.1265 µM) was 0.365, the relative viability ([3]; first compound 0.4 µM) was 0.35 and the relative viability ([3]; first compound 4 µM) was 0.346. For the same compound, the relative viability ([4]; first compound 0.04 µM) was 0.433, the relative viability ([4]; first compound 0.1265 µM) was 0.375 and the relative viability ([4]; first compound 0.4 µM) was 0.344. The relative viability ([4]; first compound 4 µM) was 0.239, the relative viability ([5]; first compound 0.04 µM) was 0.85 and the relative viability ([5]; first compound 0.1265 µM) was 0.827. It also gave a relative viability ([5]; first compound 0.4 µM) of 0.739, a relative viability ([5]; first compound 4 µM) of 0.551 and a relative viability ([6]; first compound 0.04 µM) of 0.13. The relative viability ([6]; first compound 0.1265 µM) was 0.0927, the relative viability ([6]; first compound 0.4 µM) was 0.0941 and the relative viability ([6]; first compound 4 µM) was 0.114. It also gave a relative viability ([7]; first compound 0.04 µM) of 0.406, a relative viability ([7]; first compound 0.1265 µM) of 0.285 and a relative viability ([7]; first compound 0.4 µM) of 0.238. The relative viability ([7]; first compound 4 µM) was 0.175, the relative viability ([8]; first compound 0.04 µM) was 0.477 and the relative viability ([8]; first compound 0.1265 µM) was 0.494. The relative viability ([8]; first compound 0.4 µM) was 0.559, the relative viability ([8]; first compound 4 µM) was 0.384 and the relative viability ([9]; first compound 0.04 µM) was 0.334. For the same compound, the relative viability ([9]; first compound 0.1265 µM) was 0.326, the relative viability ([9]; first compound 0.4 µM) was 0.323 and the relative viability ([9]; first compound 4 µM) was 0.217. It also gave a relative viability ([10]; first compound 0.04 µM) of 0.257, a relative viability ([10]; first compound 0.1265 µM) of 0.29 and a relative viability ([10]; first compound 0.4 µM) of 0.294. For the same compound, the relative viability ([10]; first compound 4 µM) was 0.264, the relative viability ([11]; first compound 0.04 µM) was 0.345 and the relative viability ([11]; first compound 0.1265 µM) was 0.366. It also gave a relative viability ([11]; first compound 0.4 µM) of 0.355, a relative viability ([11]; first compound 4 µM) of 0.366 and a relative viability ([12]; first compound 0.04 µM) of 0.567. It also gave a relative viability ([12]; first compound 0.1265 µM) of 0.592, a relative viability ([12]; first compound 0.4 µM) of 0.52 and a relative viability ([12]; first compound 4 µM) of 0.569. For the same compound, the relative viability ([13]; first compound 0.04 µM) was 0.364, the relative viability ([13]; first compound 0.1265 µM) was 0.422 and the relative viability ([13]; first compound 0.4 µM) was 0.399. It also gave a relative viability ([13]; first compound 4 µM) of 0.314, a relative viability ([14]; first compound 0.04 µM) of 0.451 and a relative viability ([14]; first compound 0.1265 µM) of 0.562. It also gave a relative viability ([14]; first compound 0.4 µM) of 0.579, a relative viability ([14]; first compound 4 µM) of 0.482 and a relative viability ([15]; first compound 0.04 µM) of 0.449. It also gave a relative viability ([15]; first compound 0.1265 µM) of 0.49, a relative viability ([15]; first compound 0.4 µM) of 0.447 and a relative viability ([15]; first compound 4 µM) of 0.478. It also gave a relative viability ([16]; first compound 0.04 µM) of 0.461, a relative viability ([16]; first compound 0.1265 µM) of 0.278 and a relative viability ([16]; first compound 0.4 µM) of 0.344. The relative viability ([16]; first compound 4 µM) was 0.192, the relative viability ([17]; first compound 0.04 µM) was 0.598 and the relative viability ([17]; first compound 0.1265 µM) was 0.646. The relative viability ([17]; first compound 0.4 µM) was 0.535, the relative viability ([17]; first compound 4 µM) was 0.448 and the relative viability ([18]; first compound 0.04 µM) was 0.27. The relative viability ([18]; first compound 0.1265 µM) was 0.226, the relative viability ([18]; first compound 0.4 µM) was 0.214 and the relative viability ([18]; first compound 4 µM) was 0.207. It also gave a relative viability ([19]; first compound 0.04 µM) of 0.856, a relative viability ([19]; first compound 0.1265 µM) of 0.682 and a relative viability ([19]; first compound 0.4 µM) of 0.593. For the same compound, the relative viability ([19]; first compound 4 µM) was 0.503, the relative viability ([20]; first compound 0.04 µM) was 0.224 and the relative viability ([20]; first compound 0.1265 µM) was 0.18. It also gave a relative viability ([20]; first compound 0.4 µM) of 0.23, a relative viability ([20]; first compound 4 µM) of 0.231 and a relative viability ([21]; first compound 0.04 µM) of 0.193. The relative viability ([21]; first compound 0.1265 µM) was 0.212, the relative viability ([21]; first compound 0.4 µM) was 0.246 and the relative viability ([21]; first compound 4 µM) was 0.191. It also gave a relative viability ([22]; first compound 0.04 µM) of 0.797, a relative viability ([22]; first compound 0.1265 µM) of 0.736 and a relative viability ([22]; first compound 0.4 µM) of 0.572. It also gave a relative viability ([22]; first compound 4 µM) of 0.57, a relative viability ([23]; first compound 0.04 µM) of 0.694 and a relative viability ([23]; first compound 0.1265 µM) of 0.606. The relative viability ([23]; first compound 0.4 µM) was 0.625 and the relative viability ([23]; first compound 4 µM) was 0.492.
